According to US10568857B2, “Method of treating renal system damage” (The University of Utah Research Foundation, priority 2008, dated 2020):
“Also recorded” adds a separate entry of the source.

Columns and labels:
[1] = system: BALB/c mice (ADR nephropathy); assay: Adriamycin (ADR) nephropathy in mice, OA-NO2 pretreatment via osmotic mini-pump; format: in vivo, mouse; details: for plasma albumin: control 1.01±0.15; for albuminuria (urinary albumin): control 33.39±3.50
Procedure: Male BABL/C mice were purchased from the Jackson Laboratories (Bar Harbor, Me., USA). Mice were maintained in a temperature-controlled barrier facility with a 12:12-h light-dark cycle and were given free access to standard laboratory chow and tap water. Mice were randomized into three groups: 1) control, 2) Adriamycin (ADR), and 3) ADR+ nitro-oleic acid (OA-NO2). In Group 3, OA-NO2 (dissolved in ethanol) was administered at 5 mg/kg/day via subcutaneously implanted osmotic mini-pump and vehicle (ethanol) was given to the other two groups. This dose was chosen based a previous study (35). After 2 days of pretreatment with OA-NO2, Groups 2 and 3 received a single tail vein injection of ADR at 10 mg/kg. Group 1 received a single tail vein injection of saline. Twenty four-hour urine was collected with using metabolic cages. Seven days after ADR treatment, all mice were killed and kidneys were immediately harvested gene expression or histological analyses. All protocols employing mice were conducted in accordance the principles and guidance of the University of Utah Institutional Animal Care and Committee.
Urine samples were centrifuged for 5 minutes at 10,000 rpm. Blood samples from anesthetized mice were collected by puncturing the vena cava using a 1-ml insulin syringe containing 50 μl of 1 mM EDTA in the absence of protease inhibitors. Urine and plasma albumin was determined using a murine microalbuminuria enzyme-linked immunosorbent assay kit (Cat#1011, EXOCELL). Plasma triglyceride level was determined using a LabAssay Triglyceride ELISA Kit (Cat#290-63701, WAKO). Urine and plasma levels of urea were measured by Urea Nitrogen Direct kit (Cat#0580-250, Stanbio Laboratory), and urine and plasma levels of creatinine were measured by Creatinine Liquicolor kit (Cat#0420-250, Stanbio Laboratory).
Under anesthesia, kidneys were removed and fixed with 4% paraformaldehyde. The tissues were subsequently embedded in paraffin and 4-μm sections were cut and stained with periodic acid Schiff (PAS). Glomerular sclerosis was assessed as follows using a semiquantitative score: grade 0, normal appearance; grade I, involvement of up to 25% of the glomerulus; grade II, involvement of 25 to 50% of the glomerulus; grade III, involvement of 50 to 75% of the glomerulus; grade IV, involvement of 75 to 100% of the glomerulus. A glomerulosclerosis index (GSI) was calculated by multiplying the number of glomeruli with a sclerosis score of I by one, the number with a score of II by two, III by three, and IV by four. These values were summed and divided by the number of glomeruli assessed, including those with a sclerosis score of zero. The SI for each kidney specimen was a sum of the points from 30 glomeruli. Tubulointerstitial injury (defined as tubular atrophy, dilatation, thickening of the basement membrane, protein cast) by semiquantitative analysis. Thirty cortical fields from each animal were examined at ×200 magnification and graded according to a scale of 0 to 4: 0, no tubulointerstitial injury 1, <25% of the tubulointerstitium injured; 2, 25% to 50% of the tubulointerstitium injured; 3, 51% to 75% of the tubulointerstitium injured; and 4, 76% to 100% of the tubulointerstitium injured. All sections were examined in blind manner.
Immunohistochemical staining was performed. Anti-WT1 antibody was purchased from Dako (Mob437, Dako).
Total RNA was isolated using TRIzol (Invitrogen, Carlsbad, Calif.), and first-strand cDNAs were synthesized from 2 μg of total RNA in […] reaction using SuperScript (Invitrogen). The first strand cDNAs served as the template for quantitative PCR performed in Applied Biosystems 7900 Real Time PCR System using SYBR green PCR reagent (Applied Biosystems, Foster City, Calif., USA). The amplification was carried out for 40 cycles with conditions of 15-s denaturation at 95° C. […]

[2] = system: human proximal tubular cells (HK2); format: cell-based; details: pretreatment 1 h with 1.5 μM OA-NO2, then 24 h 1 μM cisplatin
Procedure: FIG. 6. Bar graphs show the effects of nitrated fatty acid OA-NO2 on cisplatin-induced apoptosis in vivo and in vitro. A), Caspase activity in the mouse kidney. N=5-6 in each group. B), Caspase activity in cultured human proximal tubular cells (HK2). Following pretreatment for 1 h with vehicle or 1.5 μM OA-NO2, the cells were exposed for 24 h to 1 μM cisplatin. N=3 in each group. Data are mean±SE. A single dose of i.p. injection of cisplatin induced renal dysfunction as indicated by the marked rise in plasma BUN (FIG. 1), accompanied by severe renal histological abnormalities characterized by distortion of the overall renal morphology, dilation of renal tubules, and appearance of protein cast (FIG. 2).

[3] = system: B6129SF2/J mice (cisplatin-induced toxicity); assay: Effects of OA-NO2 on cisplatin-induced toxicity in mice; format: in vivo, mouse; details: cisplatin 20 mg/kg i.p.
Procedure: FIG. 1. A bar graph showing the plasma concentrations of Blood Urea Nitrogen (BUN) in mice under the conditions indicated. N=5-6. Data are mean±n SE. B6129S2/J mice (male, 3-4-mo-old) received vehicle (Control) or a single i.p. injection of cisplatin alone (20 mg/kg in saline). After 20 min, the cisplatin group was randomly divided to receive an i.p injection of OA-NO2 (400 mg/kg in ethanol) or an equivalent amount of ethanol at 6-h intervals for 48 h.
Male 3-4-month-old B6129SF2/J mice were from Jackson Laboratories (Bar Harbor, Me.). All animals were housed in an air-conditioned room with a 12-hour light/dark cycle. All procedures and protocols were in accordance with guidelines set by the Laboratory Animal Care Committee at the University of Utah.
Protocol for testing effects of OA-NO2 on cisplatin-induced toxicity in B6129SF2/J mice. B6129S2/J mice (male, 3-4-mo-old) received vehicle (saline) or a single i.p. (intraperitoneal) injection of cisplatin alone (20 mg/kg in saline). After 20 minutes, the cisplatin group was randomly divided to receive an i.p. injection of OA-NO2 (400 mg/kg in ethanol) or an equivalent amount of ethanol at 6-hour intervals for 48 hours. The control group also received an i.p. injection of the equivalent amount of ethanol at the same frequencies. At the end of the experiments, under isoflurane anesthesia, blood was withdrawn from the vena cava using 1 cc insulin syringe and kidneys were harvested for analysis of morphology and gene expression.

[4] = ADR+OA-NO2 group vs ADR, P<0.05
[5] = OA-NO2 treatment in ADR mice, P<0.05
[6] = OA-NO2 treatment in ADR mice, real-time PCR and Western blotting, P<0.05
[7] = OA-NO2 400 mg/kg i.p. at 6-h intervals for 48 h
[8] = OA-NO2 400 mg/kg i.p. at 6-h intervals for 48 h, real time RT-PCR
[9] = posttreatment OA-NO2 400 mg/kg i.p. at 6-h intervals for 48 h

Compound: COc1cccc2c1C(=O)c1c(O)c3c(c(O)c1C2=O)C[C@@](O)(C(=O)CO)C[C@@H]3O[C@H]1C[C@H](N)[C@H](O)[C@H](C)O1 [ADR, doxorubicin (Adriamycin), reference compound]
- plasma triglyceride ([1]; ADR group (ADR 10 mg/kg alone)): 396.18 ± 70.94 mg/dL
- plasma albumin ([1]; ADR group (ADR 10 mg/kg alone), day 7): 0.28 ± 0.08 g/dL
- albuminuria (urinary albumin) ([1]; ADR group (ADR 10 mg/kg tail vein alone), day 5): 508.89±48.52 μg/24 h
- mice with severe ascites at sacrifice ([1]; ADR mice (ADR 10 mg/kg alone)): Ninety

Compound: nitrooleic acid [OA-NO2]
- cisplatin-induced caspase activity [2]: almost completely normalized
- renal ZO-1 mRNA (qRT-PCR) ([1]; ADR+OA-NO2 group): significant elevation
- number of WT1-positive cells (podocytes), immunohistochemistry ([1]; ADR+OA-NO2 group vs ADR group): partially restored
- plasma BUN ([1]; ADR+OA-NO2 group vs ADR group): significantly attenuated
- plasma creatinine ([1]; ADR+OA-NO2 group vs ADR group): significantly attenuated
- renal gp91phox protein (immunoblot) ([1]; ADR+OA-NO2 group vs ADR, P<0.01): further confirmed at the protein level
- renal mRNA expression of gp91phox [1, 4]: the increase was less
- renal mRNA expression of p47phox [1, 4]: the increase was less
- plasma triglyceride ([1]; ADR+OA-NO2 group, OA-NO2 5 mg/kg/day): 212.70 ± 39.22 mg/dL
- albuminuria (urinary albumin) ([1]; ADR+OA-NO2 group, day 5 after ADR 10 mg/kg i.v., OA-NO2 5 mg/kg/day s.c. mini-pump from 2 days before): 342.40±33.26 μg/24 h
- plasma albumin ([1]; ADR+OA-NO2 group, day 7 after ADR, OA-NO2 5 mg/kg/day): 0.58 ± 0.13 g/dL
- mice having mild ascites at sacrifice ([1]; ADR+OA-NO2 mice, OA-NO2 5 mg/kg/day): 20%
- glomerulosclerotic index (GSI), PAS staining ([1]; ADR+OA-NO2 vs ADR, P<0.05): ameliorates glomerulosclerosis; also recorded: marked reduction
- albuminuria (urinary albumin), time course ([1]; ADR+OA-NO2 vs ADR, day 3 and day 7 after ADR injection): ameliorates albuminuria; also recorded: These changes were observed at day 3 and maintained at day 7
- tubulointerstitial lesion (TILI) ([1]; ADR+OA-NO2 vs ADR, day 8 after ADR injection): ameliorates
- renal expression of IL-1β (qRT-PCR) ([1]; OA-NO2 in ADR mice): suppressed
- renal expression of MCP-1 (qRT-PCR) ([1]; OA-NO2 in ADR mice): suppressed
- renal expression of TNF-α (qRT-PCR) ([1]; OA-NO2 in ADR mice): suppressed
- renal WT1 protein (immunoblotting) ([1]; OA-NO2 pretreatment in ADR mice, P<0.05): prevented the downregulation
- renal desmin mRNA (qRT-PCR) ([1]; OA-NO2 treatment in ADR mice): prevented this increase
- renal TGF-β mRNA expression [1, 5]: dramatic suppression
- renal collagen III mRNA expression [1, 5]: dramatic suppression
- renal fibronectin (FN) expression [1, 6]: prevented the up-regulation
- renal α-SMA expression [1, 6]: prevented the up-regulation
- kidney TBARS ([1]; OA-NO2 treatment vs ADR mice): trend of reduction of TBARS levels in response to OA-NO2 treatment but this did not reach a statistical significance
- plasma TBARS ([1]; OA-NO2 treatment vs ADR mice): markedly attenuated
- urinary TBARS ([1]; OA-NO2 treatment vs ADR mice): markedly attenuated
- activity of caspase in the mouse kidney [3, 7]: attenuated or completely corrected
- kidney thiobarbituric acid-reactive substances (TBARS) [3, 7]: attenuated or completely corrected
- plasma level of MPO ([3]; OA-NO2 400 mg/kg i.p. at 6-h intervals for 48 h, EIA): reduces; also recorded: attenuated or completely corrected
- kidney expression of NADPH oxidase subunit gp91phox [3, 8]: attenuated or completely corrected
- kidney expression of NADPH oxidase subunit p47phox [3, 8]: attenuated or completely corrected
- plasma BUN (renal function) [3, 9]: improves renal function; also recorded: markedly attenuated
- renal histological abnormalities (renal morphology, dilation of tubules, protein cast) [3, 9]: improves renal morphology; also recorded: markedly attenuated
